SMILES strings stand for the structures.

Chain of hSTING-CTD (Q86WV6 135-379): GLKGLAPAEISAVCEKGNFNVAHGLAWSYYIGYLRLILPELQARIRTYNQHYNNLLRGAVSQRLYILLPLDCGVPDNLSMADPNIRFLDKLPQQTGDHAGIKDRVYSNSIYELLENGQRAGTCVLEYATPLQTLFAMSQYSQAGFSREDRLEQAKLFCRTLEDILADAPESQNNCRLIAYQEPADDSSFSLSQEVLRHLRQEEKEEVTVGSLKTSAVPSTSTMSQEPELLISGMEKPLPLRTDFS
Chain of hSTING-WT (Q86WV6 140-379 H232R): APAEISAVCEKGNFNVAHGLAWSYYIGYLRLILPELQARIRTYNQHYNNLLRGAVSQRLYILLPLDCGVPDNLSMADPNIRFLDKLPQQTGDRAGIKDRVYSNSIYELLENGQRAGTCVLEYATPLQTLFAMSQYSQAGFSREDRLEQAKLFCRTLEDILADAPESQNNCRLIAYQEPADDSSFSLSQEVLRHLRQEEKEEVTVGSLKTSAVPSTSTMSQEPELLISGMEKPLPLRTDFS
Chain of STING protein (Q86WV6 whole entry H232R): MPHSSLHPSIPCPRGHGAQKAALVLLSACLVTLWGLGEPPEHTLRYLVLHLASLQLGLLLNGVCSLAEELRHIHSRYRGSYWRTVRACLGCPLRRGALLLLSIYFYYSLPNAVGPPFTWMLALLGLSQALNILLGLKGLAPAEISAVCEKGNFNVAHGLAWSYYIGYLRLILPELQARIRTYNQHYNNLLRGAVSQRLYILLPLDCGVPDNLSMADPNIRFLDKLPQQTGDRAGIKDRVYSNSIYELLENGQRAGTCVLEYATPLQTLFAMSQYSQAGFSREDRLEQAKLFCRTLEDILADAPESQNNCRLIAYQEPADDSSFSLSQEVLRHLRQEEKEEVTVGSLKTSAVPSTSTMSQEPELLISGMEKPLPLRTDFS

The first assay addresses hSTING-CTD (Homo sapiens (Human), UniProt Q86WV6). Put plainly: Human STING protein FP competition concentration response assay. It is filed as binding.
Details: not given
As to the method: A validated STING ligand, such as c-di-GMP, which is labeled with a read-out signal (e.g., a fluorescence signal such as fluorescein), is mixed with STING-CTD (e.g., mouse STING-CTD or human STING-CTD) with or without the presence of a compound of the present application. Changes in the read-out signal are measured (e.g., by fluorescence anisotropy) to determine the binding of the compound to STING-CTD.
Fluorescein labeled c-di-GMP, a validated STING ligand, was mixed with recombinant hSTING-CTD in a homogenous assay format with or without the presence of a compound of the present application (titrated) in PBS in black 384-well plates (10 μL per well). The fluorescence anisotropy was determined on a PerkinElmer EnVisions multi-mode plate reader. The plate can be read immediately after mixing the reagents or after a few hours without change of signals.
• 1) hSTING (Supplier: HDB) • 2) 2′-Fluo-AHC-c-di GMP (BIOLOG #F009) • 3) 2′3′-cGAMP (BIOLOG #C161) • 4) DMXAA (InvivoGen #tlrl-dmx) • 5) DMSO (Sigma, #D5879-100 mL) • 6) 10×PBS(HDB #MCP-020) • 7) Assay plate, 384-well black plate, solid black bottom (Greiner #784076) • 8) Compound dilution intermediate plate, 384 LDV plate (Labcyte #LP-0200) • 9) Liquid handler, ECHO550 (Labcyte) • 10) Liquid handler, Bravo (Aglient) • 11) Reader, Envision (PerkinElmer) • 12) Centrifuge (Eppendorf) • 13) Multichannel Pipette (Raining) • 14) 10 ml Reservoir (Corning) • 15) 15 ml centrifuge tube (Corning) • 16) Adhesive Plate seals (BioRad) Compound Preparation • a) Containers of each compound were centrifuged at 1000 rpm for 5 min. • b) Compounds were dissolved in DMSO at 30 mM. • c) Compounds were sufficiently vortexed, and centrifuged at 1000 rpm for 1 min. • d) 16 uL of the compound solution was transferred into a LDV Compound Plate. • e) 2-fold serial dilutions of the compound solution were made with DMSO, and 14 concentrations were made in the 384-well LDV Compound Plate. • f) The LDV plate was spun at 1000 rpm for 60 sec and sealed with foil (stored at −20° C. if not used immediately). • g) 335 nL of each compound from the LDV Compound Plate was transferred to Assay Plate (ECHO550). Probe Preparation • a) 200 uM probe stock (2′-Fluo-AHC-c-diGMP) was diluted by ddH2O to 6 uM working concentration. • b) 10-12 uL 6 uM working solution of probe was transferred into the LDV plate. • c) 50 nL per well 6 uM working solution of probe was transferred from the LDV plate to each well of the empty Assay Plate (Greiner 784076) by ECHO550 Buffer mode. • d) Probe final concentration was 30 nM when assay system was 10 uL. • e) The Assay Plate was spun at 1000 rpm for 1 min. Compound Addition • a) After the LDV Compound Plate was prepared, 335 nL compound (ECHO550 DMSO mode) was transferred from the LDV Compound Plate into the Assay Plate (Greiner 784076) containing 50 nL probe in each well according to the Assay Plate layout. • b) DMSO final concentration was 3.35% when assay system was 10 uL. • c) The Assay Plate was spun at 1000 rpm for 1 min. Protein Addition • a) Aliquot of hSTING protein was thawed on ice, briefly to generate uniform solution. • b) 55 uM stock protein was diluted in 1×PBS assay buffer to generate 10 uM final solutions. • c) For test compound and ZPE wells, 10 μL per well of 10 uM protein solutions was added into the Assay Plate containing both the probe and test compounds or DMSO using multichannel pipette. • d) For HPE wells, 10 μL/well of 1×PBS assay buffer instead of protein was added into the Assay Plate containing both the probe and DMSO using multichannel pipette. • e) The Assay Plate was spun at 1000 rpm for Imin. • f) The Assay Plate was incubated at r.t. for 10-20 min.
The EnVision plate reader was used to record the FA value of each well immediately after mixing the reagents or after a few hours without change of signals.
The raw data and calculated data (Fluorescence anisotropy (FA)) was exported from the EnVision reader. […]
In the case of `O=C(O)Cn1c2cc(Br)ccc2c(=O)c2ccc(Cl)c(Cl)c21` [Compound 79], the IC50 (commonly the point on the concentration scale where inhibition reaches its midpoint) is 100 to 500 µM.
Same read-out and setting: for `CC(C)c1ccc(-c2ccc3c(c2)c(=O)c2ccccc2n3CC(=O)O)cc1` [Compound 41] the value was less than 100 µM; for `O=C(O)Cn1c2ccccc2c(=O)c2cc(C#CC3CCCCC3)ccc21` [Compound 39], 100 to 500 µM; for `CC(C)Nc1ccc2c(=O)c3ccc(Cl)c(Cl)c3n(CC(=O)O)c2c1` [Compound 119], less than 100 µM.
Consider `CC(C)(C)c1ccc2c(=O)c3ccc(Cl)c(OC4CCC4)c3n(CC(=O)O)c2c1` [Compound 228], for which the IC50 is more than 1000 µM.
Regarding `O=C(O)Cn1c2cccc(F)c2c(=O)c2ccc(Cl)c(Cl)c21` [Compound 31], the IC50 lay within 500 to 1000 µM.
As to `Cc1ccccc1CCc1ccc2c(c1)c(=O)c1ccccc1n2CC(=O)O` [Compound 74], the IC50 was in the range of 100 to 500 µM.
`O=C(O)Cn1c2cc(NC3CCCC3)ccc2c(=O)c2ccc(Cl)c(Cl)c21` [Compound 118]: the IC50 was less than 100 µM.
Still for that read-out and setting: for `O=C(O)Cn1c2cc(F)ccc2c(=O)c2ccc(Cl)c(Cl)c21` [Compound 30] the value was more than 1000 µM.
`CC(C)c1ccc(-c2ccc3c(c2)c(=O)c2ccc(Cl)c(Cl)c2n3CC(=O)O)cc1` [Compound 72] came in with an IC50 of less than 100 µM.
In the case of `Cc1cc2c(=O)c3ccc(Cl)c(Cl)c3n(CC(=O)O)c2cc1N1CCCCC1` [Compound 62], the IC50 is more than 1000 µM.
The same measure, in the same setting: next, `Cc1cc2c(=O)c3ccc(Cl)c(Cl)c3n(CC(=O)O)c2cc1F` [Compound 93]: 500 to 1000 µM.
Still for that read-out and setting: for `O=C(O)Cn1c2ccccc2c(=O)c2c(Cl)c(Cl)ccc21` [Compound 48] the value was more than 1000 µM; for `CC1(C)c2ccccc2N(CC(=O)O)c2ccc(Br)cc21` [Compound 86], 500 to 1000 µM.
Same read-out and setting: for `COc1ccc2c(=O)c3ccc(Cl)c(Cl)c3n(CC(=O)O)c2c1` [Compound 95] the value was 100 to 500 µM; for `Cc1cc(Cl)c2c(c1)c(=O)c1ccc(C)cc1n2CC(=O)O` [Compound 38], 500 to 1000 µM; for `CCc1cccc2c1c(=O)c1ccc(Cl)c(Cl)c1n2CC(=O)O` [Compound 49], more than 1000 µM.
`O=C(O)Cn1c2ccc(Br)cc2c(=O)c2ccc(Cl)c(Cl)c21` [Compound 89] returned an IC50 of 100 to 500 µM.
Same read-out and setting: next, `N#Cc1ccc2c(=O)c3ccccc3n(CC(=O)O)c2c1Cl` [Compound 107]: less than 100 µM.
The compound `O=C(O)Cn1c2cc(NC3CCC3)ccc2c(=O)c2ccc(Cl)c(Cl)c21` [Compound 117] displayed an IC50 of less than 100 µM.
The compound `Cc1ccc2c(c1)c(=O)c1ccc(Cl)c(Cl)c1n2CC(=O)O` [Compound 121] returned an IC50 of 500 to 1000 µM.
Consider `Cc1ccc2c(=O)c3cc(-c4ccc(C(C)C)cc4)ccc3n(CC(=O)O)c2c1` [Compound 77], for which the IC50 lay within 100 to 500 µM.
For the compound `O=C(O)Cn1c2ccccc2c(=O)c2ccc(Cl)c(F)c21` [Compound 84], the IC50 is more than 1000 µM.
`O=C(O)Cn1c2ccccc2c(=O)c2cc(/C=C\c3ccccc3)ccc21` [Compound 80] registered an IC50 of 100 to 500 µM.
Still for that read-out and setting: next, `CSc1ccc2c(=O)c3ccc(SC)c(Cl)c3n(CC(=O)O)c2c1` [Compound 46]: more than 1000 µM; `O=C(O)Cn1c2ccccc2c(=O)c2cc(Cl)cc(Cl)c21` [Compound 58]: more than 1000 µM.
Take `O=C(O)Cn1c2ccccc2c(=O)c2cc(CCC3CCCCC3)ccc21` [Compound 40]: the IC50 is less than 100 µM.
Regarding `O=C(O)CN1c2ccccc2Cc2cc(CCC3CCCCC3)ccc21` [Compound 90], the IC50 lay in the range of 500 to 1000 µM.
Compound `O=C(O)Cn1c2ccccc2c(=O)c2ccc(F)c(Cl)c21` [Compound 83] registered an IC50 of more than 1000 µM.
In turn, `Cc1cc2c(=O)c3ccc(Cl)c(Cl)c3n(CC(=O)O)c2cc1N1CCOCC1` [Compound 63] returned an IC50 of 100 to 500 µM.
`O=C(O)Cn1c2cc(C3=CCCC3)ccc2c(=O)c2ccc(Cl)c(Cl)c21` [Compound 114] yielded an IC50 of less than 100 µM.
Consider `CC(C)c1ccc(-c2ccc3c(=O)c4ccc(Cl)c(Cl)c4n(CC(=O)O)c3c2)cc1` [Compound 91], for which the IC50 is less than 100 µM.
As to `CCNc1ccc2c(=O)c3ccc(Cl)c(Cl)c3n(CC(=O)O)c2c1` [Compound 123], the IC50 is less than 100 µM.
Compound `O=C(O)Cn1c2ccc(CCc3ccccc3)cc2c(=O)c2ccc(Cl)c(Cl)c21` [Compound 88] had an IC50 of 100 to 500 µM.
`O=C(O)Cn1c2ccccc2c(=O)c2c(Cl)ccc(Cl)c21` [Compound 56]: the IC50 lay within 500 to 1000 µM.
Same read-out and setting: for `Cc1ccc2c(=O)c3cc(Br)ccc3n(CC(=O)O)c2c1` [Compound 78] the value was more than 1000 µM; for `COc1cccc(CCc2ccc3c(c2)c(=O)c2ccccc2n3CC(=O)O)c1` [Compound 43], 500 to 1000 µM.
As for `O=C(O)Cn1c2ccccc2c(=O)c2cc(Cl)c(Cl)cc21` [Compound 57], the IC50 is more than 1000 µM.
Compound `CC(C)c1ccc(-c2cccc3c2c(=O)c2ccc(Cl)c(Cl)c2n3CC(=O)O)cc1` [Compound 54] returned an IC50 of 100 to 500 µM.
For the compound `COc1ccccc1CCc1ccc2c(c1)c(=O)c1ccccc1n2CC(=O)O` [Compound 42], the IC50 is 500 to 1000 µM.
Turning to `Cc1ccc2c(c1C)c(=O)c1ccc(Cl)c(Cl)c1n2CC(=O)O` [Compound 96], the IC50 lay within 100 to 500 µM.
`O=C(O)Cn1c2ccccc2c(=O)c2ccc(Cl)c(Br)c21` [Compound 51] displayed an IC50 of 100 to 500 µM.
The compound `CC(C)c1cccc2c1c(=O)c1ccc(Cl)c(Cl)c1n2CC(=O)O` [Compound 55] came in with an IC50 of 500 to 1000 µM.
`O=C(O)Cn1c2ccccc2c(=O)c2ccc(Br)c(Cl)c21` [Compound 52]: the half-inhibitory concentration (IC50) fell in the range of 100 to 500 µM.
The same measure, in the same setting: for `COc1c(Cl)ccc2c(=O)c3ccc(C4CCNCC4)cc3n(CC(=O)O)c12` [Compound 226] the value was more than 1000 µM.
Still for that read-out and setting: for `CC1(C)CCC=C(c2ccc3c(c2)c(=O)c2ccccc2n3CC(=O)O)C1` [Compound 73] the value was 100 to 500 µM; for `Cc1cc2c(=O)c3ccc(Cl)c(Cl)c3n(CC(=O)O)c2cc1N(C)C` [Compound 64], 100 to 500 µM.
Still for that read-out and setting: for `O=C(O)Cn1c2cc(-c3ccccc3)ccc2c(=O)c2ccc(Cl)c(Cl)c21` [Compound 65] the value was less than 100 µM.
As for `Cc1ccc2c(=O)c3cc(CCC4CCCCC4)ccc3n(CC(=O)O)c2c1` [Compound 76], the IC50 lay within 100 to 500 µM.
`O=C(O)Cn1c2cc(C3=CCCCC3)ccc2c(=O)c2ccc(Cl)c(Cl)c21` [Compound 116] registered an IC50 of less than 100 µM.

Another assay concerns the target hSTING-WT (Homo sapiens (Human), UniProt Q86WV6, H232R). As to the kind of experiment: Radiometric filtration binding competition assay, hSTING-WT.
Details: not given
Take `CC(C)(C)c1ccc2c(=O)c3ccc(Cl)c(OC4CCC4)c3n(CC(=O)O)c2c1` [Compound 228]: the IC50 was in the range of 20 to 100 µM.
For the compound `COc1c(Cl)ccc2c(=O)c3ccc(C4CCNCC4)cc3n(CC(=O)O)c12` [Compound 226], the IC50 was in the range of 100 to 300 µM.

In a further assay the target is hSTING-R232 (Homo sapiens (Human), UniProt Q86WV6, H232R). Put plainly: STING differential scanning fluorimetry (DSF) assay, WT human STING. The following applies: WT (R232) human STING aa140-379, net shift in melting temperature. On the technique in general: Differential scanning fluorimetry follows unfolding on heating by fluorescence.
Chain of hSTING-R232 (Q86WV6 140-379 H232R): as the sequence (Q86WV6 140-379 H232R) above
Consider `CC(C)(C)c1ccc2c(=O)c3ccc(Cl)c(OC4CCC4)c3n(CC(=O)O)c2c1` [Compound 228], for which the “WT_DSF_hSWAT Tm Shift (° C.)” value was “C (“C” = 2-7° C,)”.
As for `COc1c(Cl)ccc2c(=O)c3ccc(C4CCNCC4)cc3n(CC(=O)O)c12` [Compound 226], the “WT_DSF_hSWAT Tm Shift (° C.)” value is given as “C (“C” = 2-7° C,)”.

Another assay has as its target STING protein (Homo sapiens (Human), UniProt Q86WV6, H232R). As to the kind of experiment: Cell based reporter assay of IRF activation (IRF-luciferase), THP1-dual-KI R232. Conditions: read-out: THP1-dual-KI R232_IRF(Luciferase)_Activity Maximum measured (%). For orientation: A reporter such as luciferase makes a cellular process visible.
Source text: Briefly, THP-1 monocytes were transfected and selected for stable integration of 2 reporter constructs. Clones incorporating stably integrated vectors were further selected by antibiotic resistance to blastocidin and zeocin. The reporter constructs included: (1) firefly luciferase reporter gene under the control of an ISG54 promoter fused to five interferon (IFN)-stimulated response elements to measure IRF transcription factor binding activity and (2) secreted embryonic alkaline phosphatase reporter gene under transcription control of an IFN-beta minimal promoter fused to 5 copies of the NFkB consensus transcriptional response element and 3 copies of the c-Rel binding site.
The resulting THP-1 cell line was further modified to incorporate 3 amino acid point mutations (H71R A230G Q293R). This modification of the native TMEM173 gene in THP-1 cells (HAQ) was designed to produce a cell reporter that expressed the most common allelic variant in the human population (THP-1 R232, available from InvivoGen). Alternatively, the TMEM173 gene was knocked out to provide a congenic control to counter-screen for compound activation that was independent of the STING protein (THP-1 STING KO).
Once cell lines were established, reporter assay protocols were developed and optimized to screen small molecule compounds for agonist activity. Assay optimization for efficacy and Z′ value included titration of the following parameters:
• 1. Cell pre-activation with PMA • 2. Cell seeding density • 3. DMSO tolerance • 4. Media selection • 5. FBS concentration • 6. Incubation time • 7. Co-Assessment of cell viability by CTG assay • 8. Appropriate HPE and ZPE controls • 9. Dose Response Titration Final Assay SOP Conditions • 1. No pre-activation with PMA • 2. 5×10^4 cells/well in 96 well plate format • 3. <0.5% DMSO • 4. […] 10% FBS • 6. 14-18 hr incubation • 7. Cell Titer Glo reagent (Promega) following supernatant removal • 8.
Turning to `CC(C)(C)c1ccc2c(=O)c3ccc(Cl)c(OC4CCC4)c3n(CC(=O)O)c2c1` [Compound 228], the Emax was less than 5%.

Source of the values: patent US11414387B2, “Oxoacridinyl acetic acid derivatives and methods of use” (Stingthera, Inc., priority 2017, dated 2022).
